Data taken from PubChem BioAssay AID1963833 (Molecular Pharmacology Branch, DTP, NCI, 2024).

System: 883617-216-R-J1-PDC complex spheroid viability
Experiment: Anticancer human tumor 883617-216-R-J1-PDC patient-derived bladder carcinoma cell line growth inhibition [POLQ]
Settings: for IC50: curve of first compound; for viability, T/C: stronger effect = lower value
Method in brief: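 Patient-derived tumour cells were co-cultured with HUVEC and mesenchymal stem cells as multicellular spheroids at 37 °C. They were treated with POLQ inhibitors (novobiocin, ART-558, RP6685) alone or combined with other agents. Top concentrations were at or near clinical Cmax (otherwise 10 microM; SN-38 at 1 microM), decreasing in half-log steps.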

[1] = second compound 0.0316 µM, first compound 0.0316 µM
[2] = second compound 0.0316 µM, first compound 0.1 µM
[3] = second compound 0.0316 µM, first compound 0.316 µM
[4] = second compound 0.0316 µM, first compound 1 µM
[5] = second compound 0.0316 µM, first compound 3.16 µM
[6] = second compound 0.0316 µM, first compound 10 µM
[7] = second compound 0.1 µM, first compound 0.0316 µM
[8] = second compound 0.1 µM, first compound 0.1 µM
[9] = second compound 0.1 µM, first compound 0.316 µM
[10] = second compound 0.1 µM, first compound 1 µM
[11] = second compound 0.1 µM, first compound 3.16 µM
[12] = second compound 0.1 µM, first compound 10 µM
[13] = second compound 0.316 µM, first compound 0.0316 µM
[14] = second compound 0.316 µM, first compound 0.1 µM
[15] = second compound 0.316 µM, first compound 0.316 µM
[16] = second compound 0.316 µM, first compound 1 µM
[17] = second compound 0.316 µM, first compound 3.16 µM
[18] = second compound 0.316 µM, first compound 10 µM
[19] = second compound 1 µM, first compound 0.0316 µM
[20] = second compound 1 µM, first compound 0.1 µM
[21] = second compound 1 µM, first compound 0.316 µM
[22] = second compound 1 µM, first compound 1 µM
[23] = second compound 1 µM, first compound 3.16 µM
[24] = second compound 1 µM, first compound 10 µM
[25] = second compound 3.16 µM, first compound 0.0316 µM
[26] = second compound 3.16 µM, first compound 0.1 µM
[27] = second compound 3.16 µM, first compound 0.316 µM
[28] = second compound 3.16 µM, first compound 1 µM
[29] = second compound 3.16 µM, first compound 3.16 µM
[30] = second compound 3.16 µM, first compound 10 µM
[31] = second compound 10 µM, first compound 0.0316 µM
[32] = second compound 10 µM, first compound 0.1 µM
[33] = second compound 10 µM, first compound 0.316 µM
[34] = second compound 10 µM, first compound 1 µM
[35] = second compound 10 µM, first compound 3.16 µM
[36] = second compound 10 µM, first compound 10 µM
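Note: spheroids exposed to compounds for seven days before readout.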
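Throughout, for viability, T/C: 100% = DMSO vehicle control viability.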

## C=CC(=O)N1CCN(c2nc(=O)n(-c3c(C)ccnc3C(C)C)c3nc(-c4c(O)cccc4F)c(F)cc23)C(C)C1 (stereo unspecified) + Nc1ccc(C#CCN(C(=O)Cc2ncc(C(F)(F)F)cc2C(F)(F)F)c2ccc(F)cc2)nn1
Second compound 0.0316 µM
  IC50: > 10 µM
Second compound 0.1 µM
  IC50: > 10 µM
Second compound 0.316 µM
  IC50: > 10 µM
Second compound 1 µM
  IC50: > 10 µM
Second compound 3.16 µM
  IC50: > 10 µM
Second compound 10 µM
  IC50: > 10 µM
[1]
  viability, T/C: 71.3%
[2]
  viability, T/C: 69.1%
[3]
  viability, T/C: 67.8%
[4]
  viability, T/C: 82.7%
[5]
  viability, T/C: 82.3%
[6]
  viability, T/C: 83.9%
[7]
  viability, T/C: 63.3%
[8]
  viability, T/C: 72.8%
[9]
  viability, T/C: 64.7%
[10]
  viability, T/C: 72%
[11]
  viability, T/C: 81.9%
[12]
  viability, T/C: 88.2%
[13]
  viability, T/C: 68.5%
[14]
  viability, T/C: 64.8%
[15]
  viability, T/C: 61.8%
[16]
  viability, T/C: 72.5%
[17]
  viability, T/C: 77.3%
[18]
  viability, T/C: 73.4%
[19]
  viability, T/C: 61.4%
[20]
  viability, T/C: 57.2%
[21]
  viability, T/C: 71.7%
[22]
  viability, T/C: 78.3%
[23]
  viability, T/C: 75.8%
[24]
  viability, T/C: 91.2%
[25]
  viability, T/C: 60.4%
[26]
  viability, T/C: 67.2%
[27]
  viability, T/C: 71.5%
[28]
  viability, T/C: 70.6%
[29]
  viability, T/C: 77.8%
[30]
  viability, T/C: 91%
[31]
  viability, T/C: 64.5%
[32]
  viability, T/C: 63.8%
[33]
  viability, T/C: 73.9%
[34]
  viability, T/C: 77.2%
[35]
  viability, T/C: 91.1%
[36]
  viability, T/C: 72.1%

## CC(C)n1c(=O)n(C)c2cnc3cc(F)c(-c4ccc(OCCCN5CCCCC5)nc4)cc3c21 + Nc1ccc(C#CCN(C(=O)Cc2ncc(C(F)(F)F)cc2C(F)(F)F)c2ccc(F)cc2)nn1
Second compound 0.0316 µM
  IC50: > 10 µM
Second compound 0.1 µM
  IC50: > 10 µM
Second compound 0.316 µM
  IC50: > 10 µM
Second compound 1 µM
  IC50: > 10 µM
Second compound 3.16 µM
  IC50: > 10 µM
Second compound 10 µM
  IC50: > 10 µM
[1]
  viability, T/C: 95.3%
[2]
  viability, T/C: 94.5%
[3]
  viability, T/C: 96%
[4]
  viability, T/C: 108%
[5]
  viability, T/C: 82.6%
[6]
  viability, T/C: 75.6%
[7]
  viability, T/C: 95.7%
[8]
  viability, T/C: 114%
[9]
  viability, T/C: 87.6%
[10]
  viability, T/C: 100%
[11]
  viability, T/C: 95%
[12]
  viability, T/C: 69.8%
[13]
  viability, T/C: 112%
[14]
  viability, T/C: 89.5%
[15]
  viability, T/C: 98.9%
[16]
  viability, T/C: 119%
[17]
  viability, T/C: 80.8%
[18]
  viability, T/C: 73.8%
[19]
  viability, T/C: 108%
[20]
  viability, T/C: 104%
[21]
  viability, T/C: 113%
[22]
  viability, T/C: 104%
[23]
  viability, T/C: 92.2%
[24]
  viability, T/C: 72.7%
[25]
  viability, T/C: 101%
[26]
  viability, T/C: 95.7%
[27]
  viability, T/C: 104%
[28]
  viability, T/C: 98%
[29]
  viability, T/C: 98.3%
[30]
  viability, T/C: 76.4%
[31]
  viability, T/C: 117%
[32]
  viability, T/C: 121%
[33]
  viability, T/C: 120%
[34]
  viability, T/C: 103%
[35]
  viability, T/C: 109%
[36]
  viability, T/C: 81.8%

## CC1COCCN1c1cc(-c2ccnn2C)c2ccnc(-c3ccn[nH]3)c2n1 (stereo unspecified) + Nc1ccc(C#CCN(C(=O)Cc2ncc(C(F)(F)F)cc2C(F)(F)F)c2ccc(F)cc2)nn1
Second compound 0.0316 µM
  IC50: 0.292 µM
Second compound 0.1 µM
  IC50: 0.408 µM
Second compound 0.316 µM
  IC50: 0.479 µM
Second compound 1 µM
  IC50: 0.422 µM
Second compound 3.16 µM
  IC50: 0.572 µM
Second compound 10 µM
  IC50: 0.482 µM
[1]
  viability, T/C: 76.9%
[2]
  viability, T/C: 65.1%
[3]
  viability, T/C: 48%
[4]
  viability, T/C: 35.7%
[5]
  viability, T/C: 36.3%
[6]
  viability, T/C: 25.3%
[7]
  viability, T/C: 73.1%
[8]
  viability, T/C: 59.3%
[9]
  viability, T/C: 59.1%
[10]
  viability, T/C: 33.6%
[11]
  viability, T/C: 32.6%
[12]
  viability, T/C: 24.9%
[13]
  viability, T/C: 75.4%
[14]
  viability, T/C: 58.4%
[15]
  viability, T/C: 59%
[16]
  viability, T/C: 41.4%
[17]
  viability, T/C: 34.9%
[18]
  viability, T/C: 26%
[19]
  viability, T/C: 68.2%
[20]
  viability, T/C: 60.5%
[21]
  viability, T/C: 51.7%
[22]
  viability, T/C: 41.7%
[23]
  viability, T/C: 44.8%
[24]
  viability, T/C: 34.8%
[25]
  viability, T/C: 70.9%
[26]
  viability, T/C: 61.3%
[27]
  viability, T/C: 56.1%
[28]
  viability, T/C: 44%
[29]
  viability, T/C: 39.1%
[30]
  viability, T/C: 28.9%
[31]
  viability, T/C: 84.5%
[32]
  viability, T/C: 70%
[33]
  viability, T/C: 59.5%
[34]
  viability, T/C: 35.4%
[35]
  viability, T/C: 40.1%
[36]
  viability, T/C: 34.4%
